Measured values as given in US20030229105A1, “Treatment of autoimmune disorders” (Cyclacel Limited, priority 2002, published 2003).
Entries after “also recorded” stand apart in the source; their conditions may differ.

Tests used:
[1] = tested on: HIV-1 LTR (Tat transactivation); experiment: HIV-1 LTR-CAT reporter, Tat-activated transcription in CEM cells; assay type: cell-based; conditions: LTR-CAT plus pcTat (CMV-driven Tat)
From the text: Activated transcription by Tat was also examined in CEM cells using the LTR-CAT reporter and pcTat (CMV-driven Tat). […] .
(§1) FIG. 3 discloses inhibition of HIV-1 basal and activated transcription by cdk inhibitors. […] The graphs at the bottom of the figure represent the effect of various concentrations of general cell cycle inhibitors (hydroxyurea and nocodazole) on CEM cells. (B) Inhibition of activated transcription in CEM cells was examined using transfected HIV-1 LTR-CAT, together with pcTat plasmid. (C) Experiment similar experiment to that in panel B, except that pcTat plasmid was replaced with E. coli-expressed and purified Tat protein
Lymphocyte CEM (12D7) cells were grown to mid-log phase and were processed for protein electroporation according to a previously published procedure (24). Only one modification was introduced, in which the cells were electroporated at 230 V and plated in 10 ml of complete RPMI 1640 medium for 18 h prior to harvest and chloramphenicol acetyl transferase (CAT) assay. […] Cells were freeze-thawed three times with intermittent vortexing and then incubated for 3 min at 68° C., followed by centrifugation. Supernatants were transferred to 1.5-ml Eppendorf tubes and centrifuged, and the supernatants were used for the determination of protein concentration. CAT assays were performed with 2 μg of protein according to the method of Gorman et al. (15).

[2] = tested on: uninfected T and monocytic cells; experiment: Initial test of cdk inhibitors on uninfected cells (data not shown)
[3] = tested on: ACH2 cells (latently HIV-1 infected); experiment: Cell cycle analysis (PI staining, FACS) of HIV-1-infected ACH2 cells; assay type: cell-based; conditions: 10 μM; for apoptosis in HIV-1-infected cells: ACH2 plus TNF-α, 48 h (FIG. 2B)
From the text: We next examined the cellular effects of these drugs on the cell cycle progression of HIV-1-infected and uninfected cells. […]. […] Therefore, the selective killing mechanism by this particular drug might partially be responsible for the decrease in HIV-1 titers observed in the infected cells. We also reasoned that Purvalanol A may be toxic to uninfected induced cells by increasing the G2/M population and the increase of apoptosis, as is evident in FIG. 2A. […] U937 is the uninfected monocytic parental cell line, and U1 is the U937 cell line infected with two copies of integrated HIV-1, only one of which is wild type for viral progeny formation. […]. This is in contrast to many apoptosis-inducing agents, such as TNF-α DNA-damaging agents (gamma irradiation, mitomycin C [6]), or sodium butyrate, in which cases the apoptosis of HIV-1-infected cell accompanies massive production and the release of infectious HIV-1 virions.
Forty-eight hours later, cells were collected, fixed with 70% ethanol, PI stained, and analyzed by FACS. (B and C) Experiments similar to the experiment in panel A were performed in ACH2 (B) or U1 (C) cells (both latently HIV-1 infected) plus TNF-α, followed by ethanol fixation, PI staining, and analysis by FACS. Apoptosis (Apop) represents a mixture of cells from either G1, S, or G2/M with characteristics of cell death.
For fluorescence-activated cell sorting (FACS) analysis, cells were stained with a cocktail of propidium iodide (PI) buffer (PBS with Ca^2+ and Mg^2+, RNase A [10 μg/ml], NP-40 [0.1%], and PI [50 μg/ml]) followed by cell-sorting analysis. FACS data acquired were analyzed by ModFit LT software (Verity Software House, Inc.).

[4] = tested on: HIV-1; experiment: p24 antigen ELISA of supernatants from induced HIV-1 latently infected cells (ACH2, 8E5, U1); assay type: cell-based; conditions: for inhibition of HIV-1 replication (p24 in medium): ACH2, 8E5, U1 cells induced with TNF-α (10 ng/ml, 2 h), 10 μM drug, 5 days; for p24 antigen release, time course: ACH2 cells, days 2, 4, 6
Method: We chose HIV-1 stably integrated cells, lymphocytic ACH2 and 8E5 cell lines, as well as monocytic U1 cells (and their uninfected parental counterparts CEM and U937, respectively) for our initial studies, since viral transcription could be activated and scored through signals, such as Tat, TNF-α or phorbol myristate acetate (PMA) and PHA. We first activated viruses in these cells with TNF-α (10 ng/ml) at 37° C. for 2 h, followed by washing, and then we incubated cells with 10 μM concentrations of each drug. […] We next examined the effect of all three drugs on primary HIV-1 field isolates of SI and NSI strains. Activated PBMC were infected with two independent HIV-1 viral strains of SI (UG/92/029, subtype A envelope) and NSI (THA/92/001, subtype E envelope).
Five days later, the supernatants were collected, and the amount of newly synthesized HIV-1 was measured by p24 antigen assay. (B) Purified Tat (300 μg) was electroporated into ACH2, 8E5, and U1 cells and subsequently treated with various drugs for 5 days. […] Seven days later samples were collected and used for p19 gag ELISA. (E) PHA-activated PBMC (5×10^6) were infected with HIV-1 either SI (UG/92/029 Uganda strain, subtype A envelope) or NSI (THA/92/001, Thailand strain, subtype E envelope) strains. Unadsorbed viruses were washed after 6 h, and cells were cultured in fresh media with various cdk inhibitors (10 μM). Samples were collected every sixth day and used for p24 gag ELISA assay.
At days 2, 4, and 6, the supernatants were collected, and the released HIV-1 particles were measured by using a p24 antigen ELISA assay. (B) Twenty micrograms of total RNA was separated on an RNA-formaldehyde-agarose gel, transferred, and probed with full-length labeled HIV-1 genome RNA. The hybridized genomic RNA, singly spliced (structural), and doubly spliced (regulatory) RNAs were exposed and counted by using Molecular Dynamic PhosphorImager software.
Supernatants from the infected PBMC were collected and used directly for the p24 antigen assay. The p24 gag antigen level was analyzed by using the HIVAG-1 Monoclonal Antibody Kit (Abbott Laboratories, Diagnostics Division). The HTLV-1 p19 core antigen ELISA kit was from Retro-Tek (Cellular Products).

[5] = tested on: HIV-1 LTR; experiment: HIV-1 LTR-CAT reporter, basal transcription in CEM cells; assay type: cell-based; conditions: ca. 10 μM, 20 h
From the text: We next sought to determine whether the inhibition of HIV-1 transcription, observed above, could be mediated specifically by cdk inhibitors or by general cell cycle inhibitors. To distinguish between the two possibilities, we performed transfection experiments with all three cdk inhibitors tested above and two other well-established cell cycle inhibitors, namely, hydroxyurea and nocodazole. Hydroxyurea blocks DNA replication by inhibiting ribonucleotide reductase and thus arrests cell cycle progression at the G1/S checkpoint, while nocodazole blocks at G2/M by promoting tubulin depolymerization. […] Therefore, the basal transcription of HIV-1 was inhibited by purine analogs and not general cell cycle inhibitors.
as §1
Lymphocyte CEM (12D7) cells were grown to mid-log phase and were processed for protein electroporation according to a previously published procedure (24). […]

Row | Molecule | inhibition of Tat transactivation (CAT activity) [1] | toxicity in uninfected cells [2] | apoptosis ([3]; ACH2 cells, TNF-α, 48 h) [%] | apoptosis in HIV-1-infected cells [3] | inhibition of HIV-1 replication (p24 in medium) [4] | inhibition of HIV-1 replication (p24), Tat-treated cells ([4]; ACH2, 8E5, U1 electroporated with purified Tat, drugs for 5 days) | p24 antigen release, time course ([4]; 1 μM) | p24 antigen release, time course ([4]; 10 μM) | inhibition of HIV-1 basal transcription (CAT activity) [5]
1 | Roscovitine | impaired; also recorded: inhibited activated transcription better than the other two analogs | lack of toxicity | 30.21 | increased apoptosis | most effective | best inhibited | no obvious decrease of p24 was apparent | only low levels of viral p24 antigens were detected | dramatic inhibition
2 | CC(C)[C@H](CO)Nc1nc(Nc2cccc(Cl)c2)c2ncn(C(C)C)c2n1 [Purvalanol A] | impaired | lack of toxicity | – | increased apoptosis | most effective | – | – | – | dramatic inhibition
